Measurements from patent US11357779B2 (G1 Therapeutics, Inc., priority 2018, dated 2022).
Where two headings read alike, the source gives them in different places.

Assay: Noncompartmental pharmacokinetic parameters (Cmax, Tmax, AUC, Racc) in QD and BID cohorts of Form B
Type: in vivo, human
Conditions: human, plasma, oral
Procedure: Analysis of plasma concentration versus time data for calculation of standard pharmacokinetic (PK) parameters following oral administration was conducted using Phoenix WinNonlin version 6.3 using actual blood sampling times.
The following pharmacokinetic parameters were calculated from the concentration versus time data obtained in Example 1 for each of the above QD (200 mg, 300 mg, 400 mg, 500 mg, or 650 mg dosed) and BID (100 mg, 150 mg, or 200 mg doses) Form B of Compound II dosage cohorts: • Cmax—the observed peak plasma concentration determined from the plasma concentration versus time data obtained on Day 1 and Day 29, as applicable; • Tmax—the time to reach the observed peak plasma concentration from the plasma concentration versus time data obtained on Day 1 and Day 29, as applicable; • AUC—area under the plasma concentration versus time curve during a dosing interval on Day 1 and Day 29, as applicable; and • Racc—accumulation ratio calculated as AUCDay 29/AUCDay 1.

## CC(C)N1CCN(c2ccc(Nc3ncc4cc5n(c4n3)C3(CCCCC3)CNC5=O)nc2)CC1 [Compound I, 2′-((5-(4-isopropylpiperazin-1-yl)pyridin-2-yl)amino)-7′,8′-dihydro-6′H-spiro[cyclohexane-1,9′-pyrazino[1′,2′:1,5]pyrrolo[2,3-d]pyrimidin]-6′-one]
100 mg, Cohort 6, 100 mg BID of Form B, Day 1, read-out: AUClast, Mean
  AUC(0-t): 59.7 ng·h/mL
100 mg, Cohort 6, 100 mg BID of Form B, Day 1, read-out: AUClast, Median
  AUC(0-t): 53.1 ng·h/mL
100 mg, Cohort 6, 100 mg BID of Form B, Day 1, read-out: Cmax, Mean
  Cmax: 10.2 ng/mL
100 mg, Cohort 6, 100 mg BID of Form B, Day 1, read-out: Cmax, Median
  Cmax: 8.95 ng/mL
100 mg, Cohort 6, 100 mg BID of Form B, Day 1, read-out: Tmax, Mean
  Tmax: 3.17 h
100 mg, Cohort 6, 100 mg BID of Form B, Day 1, read-out: Tmax, Median
  Tmax: 3 h
100 mg, Compound I, 100 mg BID of Form B, Cohort 6, Day 29, read-out: AUClast (Mean)
  AUC(0-t): 101 ng·h/mL
100 mg, Compound I, 100 mg BID of Form B, Cohort 6, Day 29, read-out: AUClast (Median)
  AUC(0-t): 88.2 ng·h/mL
100 mg, Compound I, 100 mg BID of Form B, Cohort 6, Day 29, read-out: Cmax (Mean)
  Cmax: 12.3 ng/mL
100 mg, Compound I, 100 mg BID of Form B, Cohort 6, Day 29, read-out: Cmax (Median)
  Cmax: 11.8 ng/mL
100 mg, Compound I, 100 mg BID of Form B, Cohort 6, Day 29, read-out: Tmax (Mean)
  Tmax: 4.4 h
100 mg, Compound I, 100 mg BID of Form B, Cohort 6, Day 29, read-out: Tmax (Median)
  Tmax: 3 h
150 mg, Compound I, 150 mg BID of Form B, Cohort 7, Day 1, read-out: AUClast (Mean)
  AUC(0-t): 130 ng·h/mL
150 mg, Compound I, 150 mg BID of Form B, Cohort 7, Day 1, read-out: AUClast (Median)
  AUC(0-t): 141 ng·h/mL
150 mg, Compound I, 150 mg BID of Form B, Cohort 7, Day 1, read-out: Cmax (Mean)
  Cmax: 21.7 ng/mL
150 mg, Compound I, 150 mg BID of Form B, Cohort 7, Day 1, read-out: Cmax (Median)
  Cmax: 24.6 ng/mL
150 mg, Compound I, 150 mg BID of Form B, Cohort 7, Day 1, read-out: Tmax (Mean)
  Tmax: 3.67 h
150 mg, Compound I, 150 mg BID of Form B, Cohort 7, Day 1, read-out: Tmax (Median)
  Tmax: 4 h
150 mg, Compound I, 150 mg BID of Form B, Cohort 7, Day 29, read-out: AUClast (Mean)
  AUC(0-t): 455 ng·h/mL
150 mg, Compound I, 150 mg BID of Form B, Cohort 7, Day 29, read-out: AUClast (Median)
  AUC(0-t): 334 ng·h/mL
150 mg, Compound I, 150 mg BID of Form B, Cohort 7, Day 29, read-out: Cmax (Mean)
  Cmax: 50.2 ng/mL
150 mg, Compound I, 150 mg BID of Form B, Cohort 7, Day 29, read-out: Cmax (Median)
  Cmax: 36.9 ng/mL
150 mg, Compound I, 150 mg BID of Form B, Cohort 7, Day 29, read-out: Tmax (Mean)
  Tmax: 4 h
150 mg, Compound I, 150 mg BID of Form B, Cohort 7, Day 29, read-out: Tmax (Median)
  Tmax: 4 h
200 mg, Cohort 1, 200 mg QD of Form B, Day 1, read-out: AUClast, Mean
  AUC(0-t): 215 ng·h/mL
200 mg, Cohort 1, 200 mg QD of Form B, Day 1, read-out: AUClast, Median
  AUC(0-t): 232 ng·h/mL
200 mg, Cohort 1, 200 mg QD of Form B, Day 1, read-out: Cmax, Mean
  Cmax: 25.5 ng/mL
200 mg, Cohort 1, 200 mg QD of Form B, Day 1, read-out: Cmax, Median
  Cmax: 27 ng/mL
200 mg, Cohort 1, 200 mg QD of Form B, Day 1, read-out: Tmax, Mean
  Tmax: 4.17 h
200 mg, Cohort 1, 200 mg QD of Form B, Day 1, read-out: Tmax, Median
  Tmax: 4 h
200 mg, Compound I, 200 mg BID of Form B, Cohort 7, Day 1, read-out: AUClast (Mean)
  AUC(0-t): 118 ng·h/mL
200 mg, Compound I, 200 mg BID of Form B, Cohort 7, Day 1, read-out: AUClast (Median)
  AUC(0-t): 125 ng·h/mL
200 mg, Compound I, 200 mg BID of Form B, Cohort 7, Day 1, read-out: Cmax (Mean)
  Cmax: 17.3 ng/mL
200 mg, Compound I, 200 mg BID of Form B, Cohort 7, Day 1, read-out: Cmax (Median)
  Cmax: 17.6 ng/mL
200 mg, Compound I, 200 mg BID of Form B, Cohort 7, Day 1, read-out: Tmax (Mean)
  Tmax: 5 h
200 mg, Compound I, 200 mg BID of Form B, Cohort 7, Day 1, read-out: Tmax (Median)
  Tmax: 5 h
200 mg, Compound I, 200 mg BID of Form B, Cohort 8, Day 29, read-out: AUClast (Mean)
  AUC(0-t): 197 ng·h/mL
200 mg, Compound I, 200 mg BID of Form B, Cohort 8, Day 29, read-out: AUClast (Median)
  AUC(0-t): 205 ng·h/mL
200 mg, Compound I, 200 mg BID of Form B, Cohort 8, Day 29, read-out: Cmax (Mean)
  Cmax: 26.3 ng/mL
200 mg, Compound I, 200 mg BID of Form B, Cohort 8, Day 29, read-out: Cmax (Median)
  Cmax: 30.5 ng/mL
200 mg, Compound I, 200 mg BID of Form B, Cohort 8, Day 29, read-out: Tmax (Mean)
  Tmax: 6.67 h
200 mg, Compound I, 200 mg BID of Form B, Cohort 8, Day 29, read-out: Tmax (Median)
  Tmax: 4 h
200 mg, Compound I, 200 mg QD of Form B, Cohort 1, Day 29, read-out: AUClast (Mean)
  AUC(0-t): 229 ng·h/mL
200 mg, Compound I, 200 mg QD of Form B, Cohort 1, Day 29, read-out: AUClast (Median)
  AUC(0-t): 227 ng·h/mL
200 mg, Compound I, 200 mg QD of Form B, Cohort 1, Day 29, read-out: Cmax (Mean)
  Cmax: 20.4 ng/mL
200 mg, Compound I, 200 mg QD of Form B, Cohort 1, Day 29, read-out: Cmax (Median)
  Cmax: 21.3 ng/mL
200 mg, Compound I, 200 mg QD of Form B, Cohort 1, Day 29, read-out: Tmax (Mean)
  Tmax: 4.2 h
200 mg, Compound I, 200 mg QD of Form B, Cohort 1, Day 29, read-out: Tmax (Median)
  Tmax: 4 h
300 mg, Cohort 2, 300 mg QD of Form B, Day 1, upon exclusion of data for patient that vomited immediately after dosing, read-out: AUClast, Mean
  AUC(0-t): 567 ng·h/mL
